Calls of active or inactive are those of the source. No cut-off for these calls is given here.
Assays:
[1] = Neurotoxicity in ip dosed Swiss albino mouse measured after 30 mins by chimney test; type: toxicity, organism-based; details: in vivo
[2] = Therapeutic index, ratio of LD50 for mortality to ED50 for anticonvulsant activity in Swiss albino mouse; type: organism-based; details: in vivo, read-out: TI
Mus musculus [3] = test: Anticonvulsant activity in Swiss albino mouse assessed as protection against PTZ-induced seizure at 0.5 mmol/kg, ip administered 30 mins before challenge; type: functional
[4] = Neurotoxicity in ip dosed Swiss albino mouse assessed as mortality; type: toxicity, organism-based; details: in vivo
Mus musculus [5] = test: Anticonvulsant activity in ip dosed Swiss albino mouse assessed as protection against PTZ-induced seizure compound administered 30 mins before challenge measured after 60 mins; type: functional
Mus musculus [6] = organism: Mus musculus; test: Protective index, ratio of TD50 for neurotoxicity to ED50 for anticonvulsant activity in Swiss albino mouse; type: functional
Mus musculus [7] = test: Anticonvulsant activity in Swiss albino mouse assessed as protection against picrotoxin-induced seizure at 0.5 mmol/kg, ip administered 30 mins before challenge; type: functional, organism-based
Mus musculus [8] = test: Anticonvulsant activity in Swiss albino mouse assessed as protection against strychnine-induced seizure at 0.5 mmol/kg, ip administered 30 mins before challenge; type: functional, organism-based
Mus musculus [9] = test: Anticonvulsant activity in Swiss albino mouse assessed as protection against maximal electroshock-induced seizure at 0.5 mmol/kg, ip administered 30 mins before challenge; type: functional
Mus musculus [10] = test: Anticonvulsant activity in Swiss albino mouse assessed as protection against PTZ-induced clonic seizure at 300 mg/kg, ip administered 30 mins before challenge; type: functional; details: route intraperitoneal
Mus musculus [11] = test: Anticonvulsant activity in Swiss albino mouse assessed as protection against maximal electroshock-induced seizure at 300 mg/kg, ip administered 30 mins before challenge; type: functional; details: route intraperitoneal
Mus musculus [12] = test: Anticonvulsant activity in Swiss albino mouse assessed as protection against maximal electroshock-induced seizure at 200 mg/kg, ip administered 30 mins before challenge; type: functional; details: route intraperitoneal
Mus musculus [13] = test: Anticonvulsant activity in Swiss albino mouse assessed as protection against PTZ-induced clonic seizure at 200 mg/kg, ip administered 30 mins before challenge; type: functional; details: route intraperitoneal

For CCOC(=O)NNC(=O)COc1cccc2c(=O)n(-c3ccccc3C)c(C)nc12, the TD50 at 0.5 h [1] was 246 mg/kg, the therapeutic index [2] was 1.53 and the inhibition in vivo at 500 µmol/kg (Mus musculus [3]) was 100%. For the same molecule, the LD50 [4] was 418 mg/kg, the ED50 (Mus musculus [5]) was 160 mg/kg and the PI (Mus musculus [6]) was 2.61. The inhibition (Mus musculus [7]) was “inactive”, the inhibition (Mus musculus [8]) was “inactive” and the inhibition in vivo at 500 µmol/kg (Mus musculus [9]) was 100%.

In the case of Cc1ccccc1-n1c(C)nc2c(OCC(=O)N/N=C\c3ccccc3F)cccc2c1=O, the inhibition in vivo at 500 µmol/kg (Mus musculus [3]) was 66%, the inhibition (Mus musculus [7]) was “inactive” and the inhibition (Mus musculus [8]) was “inactive”. For the same molecule, the inhibition in vivo at 500 µmol/kg (Mus musculus [9]) was 50%.

With Cc1ccccc1-n1c(C)nc2c(OCC(=O)NNC(=S)NN)cccc2c1=O the inhibition in vivo at 500 µmol/kg (Mus musculus [3]) was 66%, the inhibition (Mus musculus [7]) was “inactive” and the inhibition (Mus musculus [8]) was “inactive”. The inhibition in vivo at 500 µmol/kg (Mus musculus [9]) was 33%.

Cc1ccccc1-n1c(C)nc2c(OCC(=O)NN)cccc2c1=O gave a TD50 at 0.5 h [1] of 267 mg/kg, a therapeutic index [2] of 10.2 and an inhibition in vivo at 500 µmol/kg (Mus musculus [3]) of 100%. It also gave an LD50 [4] of 1000 mg/kg, an ED50 (Mus musculus [5]) of 98 mg/kg and a PI (Mus musculus [6]) of 2.72. For the same molecule, the inhibition (Mus musculus [7]) was “inactive”, the inhibition (Mus musculus [8]) was “inactive” and the inhibition in vivo at 500 µmol/kg (Mus musculus [9]) was 50%.

In the case of COc1ccccc1/C=N\NC(=O)COc1cccc2c(=O)n(-c3ccccc3C)c(C)nc12, the inhibition in vivo at 500 µmol/kg (Mus musculus [3]) was 33%, the inhibition (Mus musculus [7]) was “inactive” and the inhibition (Mus musculus [8]) was “inactive”. It also gave an inhibition in vivo at 500 µmol/kg (Mus musculus [9]) of 0%.

With Cc1ccccc1-n1c(C)nc2c(OCC(=O)NNC(N)=O)cccc2c1=O the inhibition in vivo at 500 µmol/kg (Mus musculus [3]) was 50%, the inhibition (Mus musculus [7]) was “inactive” and the inhibition (Mus musculus [8]) was “inactive”. The inhibition in vivo at 500 µmol/kg (Mus musculus [9]) was 0%.

With CCCC(CCC)C(=O)[O-].[Na+] [VALPROATE SODIUM] the TD50 at 0.5 h [1] was 450 mg/kg, the LD50 [4] was 500 mg/kg and the inhibition in vivo at 300 mg/kg (Mus musculus [10]) was 100%. The inhibition in vivo at 300 mg/kg (Mus musculus [11]) was 100% and the ED50 (Mus musculus [5]) was 300 mg/kg.

With Cc1ccccc1-n1c(C)nc2ccccc2c1=O [METHAQUALONE] the TD50 at 0.5 h [1] was 400 mg/kg, the therapeutic index [2] was 2.5 and the LD50 [4] was 500 mg/kg. The inhibition in vivo at 200 mg/kg (Mus musculus [12]) was 100%, the ED50 (Mus musculus [5]) was 200 mg/kg and the inhibition in vivo at 200 mg/kg (Mus musculus [13]) was 100%. The PI (Mus musculus [6]) was 2.

In the case of Cc1ccccc1-n1c(C)nc2c(OCC(=O)N/N=C\c3ccccc3)cccc2c1=O, the inhibition in vivo at 500 µmol/kg (Mus musculus [3]) was 50%, the inhibition (Mus musculus [7]) was “inactive” and the inhibition (Mus musculus [8]) was “inactive”. The inhibition in vivo at 500 µmol/kg (Mus musculus [9]) was 0%.

In the case of CSC(=S)NNC(=O)COc1cccc2c(=O)n(-c3ccccc3C)c(C)nc12, the TD50 at 0.5 h [1] was 287 mg/kg, the therapeutic index [2] was 3.34 and the inhibition in vivo at 500 µmol/kg (Mus musculus [3]) was 100%. It also gave an LD50 [4] of 501 mg/kg, an ED50 (Mus musculus [5]) of 150 mg/kg and a PI (Mus musculus [6]) of 1.91. For the same molecule, the inhibition (Mus musculus [7]) was “inactive”, the inhibition (Mus musculus [8]) was “inactive” and the inhibition in vivo at 500 µmol/kg (Mus musculus [9]) was 100%.

For Cc1ccccc1-n1c(C)nc2c(OCC(=O)NNC(=O)NN)cccc2c1=O, the inhibition in vivo at 500 µmol/kg (Mus musculus [3]) was 50%, the inhibition (Mus musculus [7]) was “inactive” and the inhibition (Mus musculus [8]) was “inactive”. The inhibition in vivo at 500 µmol/kg (Mus musculus [9]) was 0%.

For Cc1ccccc1-n1c(C)nc2c(OCC(=O)NCCO)cccc2c1=O, the inhibition in vivo at 500 µmol/kg (Mus musculus [3]) was 50%, the inhibition (Mus musculus [7]) was “inactive” and the inhibition (Mus musculus [8]) was “inactive”. It also gave an inhibition in vivo at 500 µmol/kg (Mus musculus [9]) of 0%.
